# Reference: US20100143935A1, “c-KIT Phosphorylation in Cancer” (Apocell, Inc., priority 2006, published 2010)
# “Also recorded” adds a separate entry of the source.
# Legend:
# melanoma = conditions: 800 mg/day; 26 patients; cited from earlier work
# [1] = system: endothelial and tumor cells; assay: CD31-TUNEL dual immunofluorescence of tumor biopsies before and 2 weeks after imatinib; format: in vivo, human; conditions: for apoptosis of endothelial and tumor cells: responder, after 2 weeks of imatinib treatment
# From the text: FIG. 4. […] The stained samples were further analyzed for apoptotic cells by TUNEL assay (green). Representative images are shown. The corresponding CD31 and TUNEL images are merged (Composite).
# [2] = system: c-KIT phosphorylation at Y721; assay: Laser scanning cytometry of phospho-Y721 c-KIT in tumor biopsies before and 2 weeks after imatinib; format: in vivo, human; conditions: responder, tumor biopsy 2 weeks after treatment vs baseline
# From the text: FIG. 2. […] Tumor biopsies were stained by anti-phospho-Y721 c-KIT antibody followed by secondary antibody conjugated with a fluorescence probe. Laser scanning cytometry (LSC) was used to analyze the […] (MFI) across the tumor biopsies.
# FIG. 3. […] (Top panels), Tumor biopsies obtained from the responder at baseline and 2 weeks after treatment (Post-treatment) were stained by anti-phospho-Y721 c-KIT antibody followed by secondary antibody conjugated with a fluorescence probe. Representative images are shown. The tumor sample stained only by the secondary antibody serves as a negative control. (Bottom panels), LSC was used to analyze the intensity of the phospho-Y721 of c-KIT (Cy5) across the entire cross section of tumor biopsies.
# For c-KIT phosphorylation, tumor biopsies obtained at baseline (pre-treatment) and during the second week of treatment (post-treatment) were assayed. […] We also examined the levels of phospho-Y703.
# [3] = system: MeWo stable cell lines expressing PK or with PTP knock down; assay: Imatinib sensitivity of stable MeWo cell lines expressing PK or with PTP knock down; format: cell-based, human; conditions: PK-expressing or PTP knock down lines vs empty vector control cells
# Phospho-c-KIT (Y703) = target: T1, Phospho-c-KIT (Y703) (Homo sapiens, UniProt P10721); assay: c-KIT phosphorylation (Y703) in GIST patients treated with sunitinib; format: in vivo
# T1 construct: GIST Patients Treated with Sunitinib; from tissue; host or cells: tumour material of GIST patients treated with sunitinib
# T1 sequence (P10721 26-976): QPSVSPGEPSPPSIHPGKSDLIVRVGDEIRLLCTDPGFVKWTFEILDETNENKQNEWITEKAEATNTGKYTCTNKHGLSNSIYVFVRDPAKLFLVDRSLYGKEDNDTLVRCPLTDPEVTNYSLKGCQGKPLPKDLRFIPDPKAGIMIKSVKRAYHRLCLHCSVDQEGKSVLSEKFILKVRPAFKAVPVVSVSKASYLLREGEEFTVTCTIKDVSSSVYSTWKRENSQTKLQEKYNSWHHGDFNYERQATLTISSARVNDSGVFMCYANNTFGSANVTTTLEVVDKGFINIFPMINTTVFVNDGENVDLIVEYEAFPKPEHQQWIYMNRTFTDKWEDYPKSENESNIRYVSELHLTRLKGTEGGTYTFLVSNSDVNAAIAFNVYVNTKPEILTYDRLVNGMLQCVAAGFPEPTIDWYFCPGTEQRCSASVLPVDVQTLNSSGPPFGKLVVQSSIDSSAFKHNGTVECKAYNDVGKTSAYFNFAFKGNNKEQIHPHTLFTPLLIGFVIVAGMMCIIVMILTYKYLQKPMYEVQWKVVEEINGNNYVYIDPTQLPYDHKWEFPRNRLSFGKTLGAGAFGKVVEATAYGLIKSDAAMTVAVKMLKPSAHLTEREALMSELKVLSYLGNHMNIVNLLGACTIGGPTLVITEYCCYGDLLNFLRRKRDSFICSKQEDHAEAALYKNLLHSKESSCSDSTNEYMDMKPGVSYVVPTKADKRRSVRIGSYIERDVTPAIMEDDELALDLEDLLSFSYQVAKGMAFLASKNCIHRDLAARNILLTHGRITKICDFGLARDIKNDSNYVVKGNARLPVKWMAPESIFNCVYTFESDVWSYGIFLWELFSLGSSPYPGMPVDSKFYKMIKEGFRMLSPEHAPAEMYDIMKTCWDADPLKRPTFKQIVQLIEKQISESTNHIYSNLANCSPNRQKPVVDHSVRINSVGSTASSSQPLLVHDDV
# Phospho-c-KIT (Y721) = target: T2, Phospho-c-KIT (Y721) (Homo sapiens, UniProt P10721); assay: c-KIT phosphorylation (Y721) in GIST patients treated with sunitinib; format: in vivo
# T2 construct: GIST Patients Treated with Sunitinib; from tissue; host or cells: tumour material of GIST patients treated with sunitinib
# T2 sequence (P10721 26-976): as above
Structure (SMILES),toxicity (melanoma),increase of apoptotic endothelial and tumor cells ([1]; nonresponding patients' tumors),apoptosis of endothelial and tumor cells [1],apoptosis of endothelial and tumor cells ([1]; listed as imatinib),levels of phospho-Y721 of c-KIT after imatinib treatment [2],levels of phospho-Y721 of c-KIT after imatinib treatment ([2]; listed as imatinib),sensitivity to imatinib-induced growth inhibition and apoptosis [3],Phospho-c-KIT (Y703) change (Phospho-c-KIT (Y703); NON-Responder) [% increase],Phospho-c-KIT (Y703) change (Phospho-c-KIT (Y703); Responder) [% decrease],Phospho-c-KIT (Y721) change (Phospho-c-KIT (Y721); NON-Responder) [% increase],Phospho-c-KIT (Y721) change (Phospho-c-KIT (Y721); Responder) [% decrease]
Cc1ccc(NC(=O)c2ccc(CN3CCN(C)CC3)cc2)cc1Nc1nccc(-c2cccnc2)n1 [Imatinib],significant toxicity,not seen,induces,higher levels of apoptosis; also recorded: substantial increase,inhibits,significantly reduced; also recorded: significant inhibition,more sensitive,–,–,–,–
"CCN(CC)CCNC(=O)c1c(C)[nH]c(/C=C2\C(=O)Nc3ccc(F)cc32)c1C [Sunitinib, N-[2-(diethylamino)ethyl]-5-[(Z)-(5-fluoro-2-oxo-1,2-dihydro-3H-indol-3-ylidene)methyl]-2,4-dimethyl-1H-pyrrole-3-carboxamide]",–,–,–,–,–,–,–,45,57,117,94
